Source: patent publication US20220026420A1, “MOLECULES AND METHODS FOR IMPROVED IMMUNODETECTION OF SMALL MOLECULES SUCH AS HISTAMINE” (PRESIDENT AND FELLOWS OF HARVARD COLLEGE, priority 2018, published 2022)

How the values were obtained:
[1] = system: anti-histamine antibody conjugated to HRP; assay: Refined 5 min histamine ELISA with anti-histamine antibody conjugated to HRP; format: binding; settings: for starting signal compared to PEG-mono histidine: 5 min assay; for Kd: Hill equation fit without the 0 nM histamine data point, read-out: dissociation constant (Kd)
Experimental: The assay was further refined to decrease the total assay time. This was achieved by conjugating the anti-histamine antibody to the detection enzyme HRP 192 as depicted by FIG. 19. The resultant assay could be completed within 5 min. For the present study, only PEG-mono histidine and PEG-dual histidine were used. FIG. 20A and FIG. 20B show the results obtained from the study.
The data points obtained were fitted using a Hill equation which further assisted to characterize the linkers under study.
Histamine detection assay could be performed in two formats. The first format includes the immobilization of histamine conjugates to the solid support while the second format includes the immobilization of anti-histamine antibody on the solid support. For the immobilization of histamine conjugates the immobilization sample was prepared in 0.2 M carbonate-bicarbonate buffer (pH 9.4). Immobilisation samples herein refers to BSA-histamine, Streptavidin, and not limited to BSA-Histidine Samples. A high binding polystyrene 96 well ELISA plate was coated with 100 microliters of immobilization sample and the plates were incubated overnight at 4° C. Each well was then washed thrice with 0.01M phosphate-buffered saline with 0.05% Tween 20 (pH 7.4). To each well was then added 250 microliters 1% BSA solution prepared in 0.01M phosphate-buffered saline with 0.05% Tween 20 (pH 7.4) for 1 hour at ambient temperature. Each well was then washed three times with 0.01M phosphate-buffered saline with 0.05% Tween 20 (pH 7.4). For Streptavidin coated plates, to each well was then added 100 microliters of linkers prepared in 0.1% BSA in 0.01M phosphate-buffered saline with 0.05% Tween 20 (pH 7.4) as described in the other sections for 2 hours at ambient temperature on a shaker at 260 rpm. Each well was then washed three times with 0.01M phosphate-buffered saline with 0.05% Tween 20 (pH 7.4). The plate was then incubated with 50 microlitres of different concentration of free histamine and co-incubated with anti-histamine antibody for 1 hour at ambient temperature. […]. Anti-histamine antibody was prepared in 0.1% BSA in 0.01M phosphate-buffered saline with 0.05% Tween 20 (pH 7.4). After the incubation, each well was washed three times with 0.01M phosphate-buffered saline with 0.05% Tween 20 (pH 7.4). The plates were then incubated with a secondary antibody labelled with HRP prepared in 0.1% BSA in 0.01M phosphate-buffered saline with 0.05% Tween 20 (pH 7.4) in for 1 hour at ambient temperature. After the incubation, each well was washed three times with 0.01M phosphate-buffered saline with 0.05% Tween 20 (pH 7.4). Each well was then incubated with TMB turbo (150 microlitres) for 30 minute (measurement at a wavelength of 650 nm) followed by addition of 150 microlitres of 0.16 M Sulphuric acid to stop the solution in some examples where measurements are taken at a wavelength of 450 nm. […] Independent incubation time is described in each section.

[2] = biological target: anti-histamine antibody; assay: 5-minute electrochemical assay in spiked human plasma samples; format: binding
Excerpt: The Immuno-assay developed on the ELISA plates using PEG-dual Histidine was translated to an electrochemical platform to develop a biosensor for free histamine detection in human plasma samples.

[3] = system: anti-histamine antibody; assay: Histamine ELISA in spiked human plasma samples, conventional plate versus BSA-glutaraldehyde surface chemistry; format: binding; settings: FIG. 28
Experimental: In order for the assay design to be used for clinical applications for the rapid quantification of allergy severity, using clinical samples (e.g. human plasma, serum) is one of the most critical aspects. An ELISA plate was prepared using conventional means as shown in FIG. 19 using PEG-dual-histidine. In an alternative approach, an ELISA plate was prepared using the BSA-glutaraldehyde surface chemistry as previously described in international Application No. PCT/US2018/044076, the content of which is herein incorporated by reference. In contrast to the previously described system, no nanoparticles were used. Therefore BSA can be denatured and combined with glutaraldehyde and used to coat ELISA wells. This is then activated using and (1-ethyl-3-(3-dimethylaminopropyl)carbodiimide hydrochloride)/[…] (EDC/NHS) to link to streptavidin which allows attachment of biotin-PEG-dual-histidine. It can be clearly seen full blocking of the ELISA plate when human plasma samples are used for histamine detection. […] As per to date, no method exists to detect histamine in less than 10 minutes.

[4] = system: anti-histamine antibody; assay: Competitive histamine ELISA with PEG linkers on streptavidin plates, anti-IgG HRP detection; format: binding
Experimental: To identify an antibody that recognizes free histamine with improved (lower) binding affinities, we used the PEG-mono-histidine linker (Structure 1) as a target with antibodies that we previously screened with BSA-histamine, i.e., the antibodies listed in FIG. 3A. […] The monovalent histidine linker (25 μM) 86 was added for 1 hour, and then 5 μg ml^−1 anti-histamine antibody was incubated with different concentrations of soluble histamine for 1 hour at room temperature on a shaker 88. Finally, anti-IgG labelled HRP 810 was used to detect the bound antibodies.
The monovalent histidine linker (25 μM) 86 was added for 1 hour, and then 5 μg ml^−1 anti-histamine antibody was incubated with different concentrations of soluble histamine for 1 hour at room temperature on a shaker 88. Finally, anti-IgG labelled HRP 810 was used to detect the bound antibodies.
Histamine detection assay could be performed in two formats. The first format includes the immobilization of histamine conjugates to the solid support while the second format includes the immobilization of anti-histamine antibody on the solid support. For the immobilization of histamine conjugates the immobilization sample was prepared in 0.2 M carbonate-bicarbonate buffer (pH 9.4). Immobilisation samples herein refers to BSA-histamine, Streptavidin, and not limited to BSA-Histidine Samples. A high binding polystyrene 96 well ELISA plate was coated with 100 microliters of immobilization sample and the plates were incubated overnight at 4° C. Each well was then washed thrice with 0.01M phosphate-buffered saline with 0.05% Tween 20 (pH 7.4). To each well was then added 250 microliters 1% BSA solution prepared in 0.01M phosphate-buffered saline with 0.05% Tween 20 (pH 7.4) for 1 hour at ambient temperature. Each well was then washed three times with 0.01M phosphate-buffered saline with 0.05% Tween 20 (pH 7.4). For Streptavidin coated plates, to each well was then added 100 microliters of linkers prepared in 0.1% BSA in 0.01M phosphate-buffered saline with 0.05% Tween 20 (pH 7.4) as described in the other sections for 2 hours at ambient temperature on a shaker at 260 rpm. Each well was then washed three times with 0.01M phosphate-buffered saline with 0.05% Tween 20 (pH 7.4). The plate was then incubated with 50 microlitres of different concentration of free histamine and co-incubated with anti-histamine antibody for 1 hour at ambient temperature. […]. Anti-histamine antibody was prepared in 0.1% BSA in 0.01M phosphate-buffered saline with 0.05% Tween 20 (pH 7.4). After the incubation, each well was washed three times with 0.01M phosphate-buffered saline with 0.05% Tween 20 (pH 7.4). […]

[5] = system: anti-histamine antibody conjugated to HRP; assay: ELISA affinity of anti-histamine antibody-HRP to different linkers, without free histamine; format: binding; settings: 5 minutes, no free histamine, compared to PEG-mono-histidine linker, FIG. 26
Excerpt: FIG. 26 is a plot of a comparison of PEG-mono histamine with PEG-mono histidine using streptavidin coated ELISA plates. As illustrated, the data presents the affinity of anti-histamine antibody conjugated to HRP to different histamine conjugate linkers. As in the previous studies, streptavidin modified plates were used, here to study PEG-Mono-Histamine, PEG-mono-Histidine, PEG-phenyl-histidine and PEG-glutamate-histidine. The assay format was as per FIG. 19 without free histamine in the solution. The modified plates were then exposed to different concentrations of anti-histamine antibodies conjugated with HRP for 5 minutes.

[6] = system: anti-histamine antibody; assay: Electrochemical biosensor for free histamine detection; format: binding; settings: gold electrode, FIG. 12B
Experimental: The Immuno-assay developed on the ELISA plates was translated to an electrochemical platform to provide a biosensor for free histamine detection. The lowest concentration tested with the sensor was 2.7 nM which generated a statistically significant difference from the background. […] FIG. 12B is a semi-log plot showing the calibration curves for the electrochemical sensor using the structure depicted by FIG. 12A. Detection occurs as free […] competes and displaces Biotin-PEG6-Histidine conjugate from the anti-histamine.

[7] = system: Monoclonal Anti-Dinitrophenyl antibody conjugated with HRP; assay: Competitive DNP ELISA with DNP linkers on streptavidin plates; format: binding, mouse; settings: FIG. 25
Experimental: Monoclonal Anti-Dinitrophenyl antibody produced in mouse (D8406) and 2,4-Dinitrophenol (D198501 was purchased from Sigma. The anti-DNP antibody was directly conjugated with HRP using a commercial kit e.g., LIGHTENING-LINK™ Antibody Labeling Kits available from Novus Biolgicals. Once again ELISA plate coated with streptavidin was used as described in FIG. 19. After blocking, the plates were incubated with the respective linker. Different concentrations of DNP with anti-DNP antibody was co-incubated for 45 minutes at room temperature in the dark. After incubation, the wells were washed 3 times with 200 μL PBST and incubated with 150 μL TMB for 10 minutes. Finally, 150 μL of stop solution was added and absorbance measurement was observed. FIG. 25 is a plot showing ELISA results with Mono-DNP linker (blue) versus PEG-Dual-DNP linker (red). As with the dual histadine linkers, a clear difference could be seen between single and dual DNP linker. There is nearly a 30% increase in the signal intensity from single to dual DNP molecule.

[8] = system: anti-histamine antibody labelled with HRP; assay: 5 min histamine ELISA with BSA-PEG-mono-Histidine conjugate coated plates; format: binding; settings: 5 min incubation, FIG. 23
Experimental: The thiol-PEG-mono Histidine linker was attached to BSA as follows. A 1 mL aliquot of maleimide conjugation buffer obtained from Thermo scientific was added to 10 mg of purified thiol-PEG-mono Histidine linker. Subsequently, the 1 mL solution containing the thiol-PEG-mono Histidine was added to 5 mg of commercially available BSA-maleimide substrate and allowed to react at room temperature for 4 h to provide the histidine-PEG-BSA conjugate. The histidine-PEG-BSA conjugate was purified using a 10K spin column. The histidine-PEG-BSA conjugate obtained was then used to modify the ELISA plate wells and assay was performed using a 5 min incubation time. […] The steps include coating the plates with BSA-PEG-Histidine conjugate 222, blocking with BSA 224, and incubation with HRP labeled anti-histamine antibody and free histamine 226. FIG. 23 presents the results obtained and compared to BSA-histamine (commercial, FIG. 5). […] The used and anti-histamine antibody labelled with HRP in a 5 min incubation time assay.

## NC(=O)C(CCCCNC(=O)C(CCCCNC(=O)C(N)Cc1c[nH]cn1)NC(=O)C(N)Cc1c[nH]cn1)NC(=O)CCOCCOCCOCCOCCNC(=O)CCCCC1SC[C@H]2NC(=O)N[C@@H]12 (stereo partly drawn) [PEG-dual Histidine, Biotin-PEG-Dual-Histidine]
[1]
  starting signal compared to PEG-mono histidine: higher starting signal
[1]; FIG. 21
  dynamic range compared to PEG-mono histidine: broader dynamic range
  Kd: 280 nM
[2]; Hill equation fit without the 0 nM histamine data point, human plasma
  Kd: 6.76 nM
[2]; spiked human plasma, FIG. 24
  histamine concentration generating a statistically significant current change: 3.75 nM
[3]; BSA-glutaraldehyde surface chemistry, under 10-minute assay
  histamine detection in spiked human plasma: clear detection of histamine
[3]; ELISA plate prepared by conventional means
  histamine detection in spiked human plasma: full blocking
[4]; 5 min incubation of anti-histamine antibody, FIG. 18A
  starting signal compared to PEG-mono-histidine: increased starting signal
[4]; FIG. 11
  antibody binding specificity and sensitivity compared to the single histidine conjugate: significant improvement

## NC(=O)C(CCCCNC(=O)C(CCC(=O)O)CC(=O)C(N)Cc1cnc[nH]1)NC(=O)CCOCCOCCOCCOCCNC(=O)CCCCC1SC[C@H]2NC(=O)N[C@@H]12 (stereo partly drawn) [PEG-glutamate-histidine, Biotin-PEG-Glutamate-Histadine]
[5]
  binding affinity of anti-histamine antibody: nearly no binding

## NC(Cc1c[nH]cn1)C(=O)NCCOCCOCCOCCOCCOCCOCCNC(=O)CCCCC1SC[C@H]2NC(=O)N[C@@H]12 (stereo partly drawn) [PEG-mono Histidine, Biotin-PEG-Mono-Histidine]
[1]; FIG. 21
  Kd: 449 nM
[6]
  lowest concentration tested generating a statistically significant difference from the background: 2.7 nM
[4]; FIG. 10
  signal enhancement and sensitivity versus immobilized BSA-histamine: significantly improved

## NC(=O)C(CCCCNC(=O)C(Cc1ccccc1)NC(=O)C(N)Cc1cnc[nH]1)NC(=O)CCOCCOCCOCCOCCNC(=O)CCCCC1SC[C@@H]2NC(=O)N[C@H]12 (stereo partly drawn) [PEG-phenyl-histidine, Biotin-PEG-Phenyl-Histadine]
[5]
  binding affinity of anti-histamine antibody: decreased significantly
[1]; 5-minute histamine assay, FIG. 27
  sensitivity of the assay compared to PEG-mono-histidine: no significant difference
[1]
  starting signal compared to PEG-mono histidine: lower starting signal

## NC(=O)C(CCCCNC(=O)C(CCCCNc1cc([N+](=O)[O-])ccc1[N+](=O)[O-])Nc1cc([N+](=O)[O-])ccc1[N+](=O)[O-])NC(=O)CCOCCOCCOCCOCCNC(=O)CCCCC1SC[C@H]2NC(=O)N[C@@H]12 (stereo partly drawn) [dual DNP, Biotin-PEG-Dual-DNP]
[7]; 45 min co-incubation
  increase in the signal intensity from single to dual DNP molecule: ~30%
[7]
  dynamic range compared to single DNP linker: broader dynamic range

## PEG-mono Histidine modified BSA: thiol-PEG-mono Histidine linker (Structure 5) attached to commercially available BSA-maleimide
[8]
  sensitivity towards free histamine compared to BSA-histamine (commercial): increased sensitivity

## biotin-EG6-histamine [PEG-mono-histamine]
[5]
  binding affinity of anti-histamine antibody: high binding affinity
[4]; concentration range studied, streptavidin coated plates, FIG. 15
  detection of free histamine: could not be detected
